Here are results for 22 compounds from ChEMBL document CHEMBL1777684, “Synthesis and evaluation of antioxidant and antibacterial activities of new substituted bis(1,3,4-oxadiazoles), 3,5-bis(substituted) pyrazoles and isoxazoles” (Bioorg Med Chem Lett, 2011).

Calls of active or inactive are those of the source. The rule behind the calls is not given here.

In one data set the test system is Pseudomonas aeruginosa. The data set can be described thus: Antibacterial activity against Pseudomonas aeruginosa NCIM 5029 at 100 ug/ml after 24 hrs by agar disc diffusion method. It counts as functional. Particulars: for zone of inhibition at 100 µg/mL: NCIM 5029, 24 h, read-out: IZ.
Data set [1] concerns Radical scavenging activity. The data set can be described thus: Antioxidant activity assessed as DPPH radical scavenging activity at 10 ug/ml by UV-visible spectrophotometry. The data set is classed as functional. A general note: DPPH is a stable violet radical that fades when it is reduced.
Another data set concerns Staphylococcus aureus. Description: Antibacterial activity against Staphylococcus aureus NCIM 2079 at 100 ug/ml after 24 hrs by agar disc diffusion method. It counts as functional. The note with it: for zone of inhibition at 100 µg/mL: NCIM 2079, 24 h, read-out: IZ. (In general: Agar diffusion results depend on both activity and mobility in agar.)
The subject of another data set is Escherichia coli. Description: Antibacterial activity against Escherichia coli NCIM 2065 at 100 ug/ml after 24 hrs by agar disc diffusion method. The note with it: for zone of inhibition at 100 µg/mL: NCIM 2065, 24 h, read-out: IZ. It counts as functional.
The test system of the next data set is Bacillus subtilis. Description: Antibacterial activity against Bacillus subtilis NCIM 2063 at 100 ug/ml after 24 hrs by agar disc diffusion method. It counts as functional. Particulars: NCIM 2063, 24 h, read-out: IZ.
Data set [2] can be described thus: Anti-lipid peroxidation activity ferric chloride-induced lipid peroxidation using egg yolk homogenate at 40 ug/ml by TBARS assay. It counts as physicochemical. Particulars: tissue homogenate.

Turning to `Clc1ccc(/C=N/Nc2cc(N/N=C/c3ccc(Cl)cc3)[nH]n2)cc1`, the zone of inhibition at 100 µg/mL with Pseudomonas aeruginosa was 5 mm; in the data set with Staphylococcus aureus, 4 mm; in the data set with Escherichia coli, 4 mm; in the data set with Bacillus subtilis, 6 mm. The Activity in data set [1] was found to be 40%.
Consider `O=C(O)c1cn(C2CC2)c2cc(N3CCNCC3)c(F)cc2c1=O` [CIPROFLOXACIN], for which the results for the zone of inhibition at 100 µg/mL in the data set on Pseudomonas aeruginosa, in the data set with Staphylococcus aureus and in the data set on Bacillus subtilis were 18 mm, 29 mm and 18 mm, respectively.
In data set [2], `COc1ccc(-c2nnc(Cc3nnc(-c4ccc(OC)cc4)o3)o2)cc1` registered an Activity of 40.5%. Moreover, the zone of inhibition at 100 µg/mL was found to be 7 mm in the data set with Pseudomonas aeruginosa, 9 mm in the data set on Staphylococcus aureus, 6 mm with Escherichia coli and 8 mm in the data set with Bacillus subtilis. Besides, the outcome in data set [1] was inactive.
Regarding `C(=N\Nc1cc(N/N=C/c2ccccc2)[nH]n1)/c1ccccc1`, the values for the Activity in data set [2] and in data set [1] were 44% and 34.2%, respectively. Further, the zone of inhibition at 100 µg/mL stood at 9 mm with Pseudomonas aeruginosa, 5 mm with Staphylococcus aureus, 4 mm in the data set with Escherichia coli and 9 mm with Bacillus subtilis.
Turning to `COc1ccc(-c2nnc(Cc3nnc(-c4ccc(OC)c(OC)c4)o3)o2)cc1OC`, the zone of inhibition at 100 µg/mL with Pseudomonas aeruginosa turned out to be 9 mm; with Staphylococcus aureus, 10 mm; in the data set with Escherichia coli, 10 mm; in the data set on Bacillus subtilis, 11 mm. The result in data set [1] was inactive.
As to `Oc1ccc(-c2nnc(Cc3nnc(-c4ccc(O)cc4)o3)o2)cc1`, the Activity in data set [2] is 53.4%; in data set [1] it was 36%. The zone of inhibition at 100 µg/mL worked out at 1 mm in the data set on Pseudomonas aeruginosa, 7 mm in the data set with Staphylococcus aureus, 1 mm in the data set with Escherichia coli and 2 mm in the data set on Bacillus subtilis.
Turning to `c1ccc(-c2nnc(Cc3nnc(-c4ccccc4)o3)o2)cc1`, the values for the Activity in data set [2] and in data set [1] were 33.4% and 41.3%, respectively. Besides, the zone of inhibition at 100 µg/mL in the data set on Pseudomonas aeruginosa amounted to 13 mm; in the data set on Staphylococcus aureus, 7 mm; with Escherichia coli it was 5 mm; in the data set with Bacillus subtilis, 10 mm.
Turning to `CN(C)c1ccc(/C=N/Nc2cc(N/N=C/c3ccc(N(C)C)cc3)on2)cc1`, the Activity amounted to 54.5% in data set [2] and 90.6% in data set [1]. In addition, the zone of inhibition at 100 µg/mL stood at 12 mm in the data set with Pseudomonas aeruginosa, 20 mm in the data set on Staphylococcus aureus, 10 mm with Escherichia coli and 15 mm in the data set on Bacillus subtilis.
As for `CN(C)c1ccc(/C=N/Nc2cc(N/N=C/c3ccc(N(C)C)cc3)[nH]n2)cc1`, the zone of inhibition at 100 µg/mL was 8 mm with Pseudomonas aeruginosa, 20 mm in the data set on Staphylococcus aureus, 9 mm in the data set with Escherichia coli and 10 mm in the data set with Bacillus subtilis. Also, the Activity in data set [1] was determined as 59.2%.
Taken in the same sequence, the figures for `COc1ccc(/C=N/Nc2cc(N/N=C/c3ccc(OC)c(OC)c3)[nH]n2)cc1OC` were 6 mm, 10 mm, 13 mm, 8 mm and 47.1%.
For `COc1cc(/C=N/Nc2cc(N/N=C/c3cc(OC)c(OC)c(OC)c3)[nH]n2)cc(OC)c1OC`, the zone of inhibition at 100 µg/mL in the data set with Pseudomonas aeruginosa is 9 mm; in the data set on Staphylococcus aureus, 17 mm; in the data set with Bacillus subtilis, 12 mm. For the same compound, in data set [1], the Activity turned out to be 52.4%. Moreover, the “inhibition zone (IZ)” value in the data set with Escherichia coli is “inactive”.
Turning to `COc1cc(/C=N/Nc2cc(N/N=C/c3cc(OC)c(OC)c(OC)c3)on2)cc(OC)c1OC`, the Activity came out at 48.4% in data set [2] and 54% in data set [1]. For the same compound, the zone of inhibition at 100 µg/mL with Pseudomonas aeruginosa is 9 mm; with Staphylococcus aureus, 13 mm; with Escherichia coli, 11 mm; in the data set on Bacillus subtilis, 10 mm.
With `CN(C)c1ccc(-c2nnc(Cc3nnc(-c4ccc(N(C)C)cc4)o3)o2)cc1`, the Activity came out at 46.3% in data set [2] and 28% in data set [1]. For the same compound, the zone of inhibition at 100 µg/mL in the data set with Pseudomonas aeruginosa was 9 mm; with Staphylococcus aureus, 13 mm; in the data set on Escherichia coli it was 10 mm; with Bacillus subtilis it was 12 mm.
In the case of `COc1ccc(/C=N/Nc2cc(N/N=C/c3ccc(OC)cc3)[nH]n2)cc1`, the values for the Activity in data set [2] and in data set [1] were 46.3% and 44.3%, respectively. Moreover, the zone of inhibition at 100 µg/mL worked out at 19 mm in the data set on Pseudomonas aeruginosa, 28 mm with Staphylococcus aureus, 18 mm in the data set with Escherichia coli and 20 mm in the data set on Bacillus subtilis.
`O=C1O[C@H]([C@@H](O)CO)C(O)=C1O`: in data set [1], the Activity stood at 93.2%.
With `Oc1ccccc1-c1nnc(Cc2nnc(-c3ccccc3O)o2)o1`, the Activity in data set [2] was 48.6%; in data set [1], 37%. Moreover, the zone of inhibition at 100 µg/mL in the data set with Pseudomonas aeruginosa came out at 5 mm; in the data set on Staphylococcus aureus, 9 mm; with Escherichia coli it was 8 mm; in the data set on Bacillus subtilis it was 13 mm.
With `O=[N+]([O-])c1ccc(/C=N/Nc2cc(N/N=C/c3ccc([N+](=O)[O-])cc3)[nH]n2)cc1`, the values for the Activity result in data set [2] and in data set [1] were “Not Active” and 74.2%, respectively. The zone of inhibition at 100 µg/mL came to 8 mm with Pseudomonas aeruginosa, 9 mm with Staphylococcus aureus, 11 mm in the data set on Escherichia coli and 7 mm in the data set with Bacillus subtilis.
Take VITAMIN E: the Activity in data set [2] is listed as 70%.
Compound `COc1cc(-c2nnc(Cc3nnc(-c4cc(OC)c(OC)c(OC)c4)o3)o2)cc(OC)c1OC` registered an Activity in data set [2] of 44.3%. The “inhibition zone (IZ)” value in the data set on Pseudomonas aeruginosa and with Escherichia coli was “inactive” in each case. Further, the zone of inhibition at 100 µg/mL in the data set on Staphylococcus aureus worked out at 7 mm; with Bacillus subtilis it was 3 mm.
On to `Clc1ccc(-c2nnc(Cc3nnc(-c4ccc(Cl)cc4)o3)o2)cc1`, for which the Activity in data set [2] was 16.2%; in data set [1], 40%. The “inhibition zone (IZ)” value in the data set with Pseudomonas aeruginosa and in the data set on Escherichia coli was “inactive” each time. The values for the zone of inhibition at 100 µg/mL in the data set on Staphylococcus aureus and with Bacillus subtilis were 4 mm and 6 mm, respectively.
On to `Oc1ccc(/C=N/Nc2cc(N/N=C/c3ccc(O)cc3)[nH]n2)cc1`, for which the Activity was determined as 58.6% in data set [2] and 83% in data set [1]. The zone of inhibition at 100 µg/mL is 18 mm in the data set on Pseudomonas aeruginosa, 13 mm in the data set on Escherichia coli and 7 mm in the data set with Bacillus subtilis. Moreover, in the data set with Staphylococcus aureus, the “inhibition zone (IZ)” value was “inactive”.
For `Clc1ccc(/C=N/Nc2cc(N/N=C/c3ccc(Cl)cc3)on2)cc1`, the Activity entry is “Not Active” in data set [2] and 37.4% in data set [1]. The zone of inhibition at 100 µg/mL with Pseudomonas aeruginosa turned out to be 6 mm; with Staphylococcus aureus it was 14 mm; in the data set on Escherichia coli, 8 mm; with Bacillus subtilis, 8 mm.
